Read-outs that look alike come from different tables or passages of the source.

In experiment [1] the test system is Raffaelea quercivora. Nature of the experiment: Flat plate antifungal test (PDA medium). The format is cell-based. The conditions noted are these: for inhibition at 1 ppm / inhibition at 10 ppm / inhibition at 100 ppm / inhibition at 0.01 ppm / inhibition at 0.1 ppm: Dryadomyces quercivorus, read-out: Inhibition rate of hyphal elongation; for antifungal effect on Raffaelea quercivora at low concentrations: concentrations of less than about 1 ppm; for inhibition at 0.01 ppm: 0.01 ppm in PDA medium. As to the method: The tree trunk injection agents was obtained by dissolving triflumizole to be each concentration of 100 ppm 10 ppm, 1 ppm, 0.1 pmm, and 0.01 ppm in solution for PDA (potato dextrose agar) medium. These tree trunk injection agents were poured into Petri dishes with inner diameter of 9 cm, and allowed to solidify to produce plate mediums with diameter of 9 cm. In this medium, the flora disk of Raffaelea quercivora was plated. This was cultured statically for 3 days to 4 days at 25° C. Then, the diameter of the flora was measured, and the inhibition rate of hyphal elongation was calculated. The inhibition rate of hyphal elongation (%) was calculated based on the formula: ((flora diameter of untreated group−flora diameter of medium containing triflumizole)/flora diameter of untreated group)×100.

For experiment [2], the system named is fungi which cause Laurel wilt. The conditions noted are these: Non-Patent Document 1; cited from earlier work.
Setting [3] is: 1 ppm in PDA medium, 3 to 4 days at 25° C.
[4] abbreviates: 10 ppm in PDA medium, 3 to 4 days at 25° C.
The mark [5] stands for this setting: 100 ppm in PDA medium, 3 to 4 days at 25° C.
Where [6] appears, read: 0.1 ppm in PDA medium, 3 to 4 days at 25° C.

Regarding `CCCCC(O)(Cn1cncn1)c1ccc(Cl)cc1Cl` (stereo not shown) [hexaconazole], in experiment [1] (setting [3]), the inhibition at 1 ppm turned out to be 33%. Moreover, the inhibition at 10 ppm in experiment [1] (setting [4]) was 98%. In addition, the inhibition at 100 ppm in experiment [1] (setting [5]) turned out to be 100%. The “antifungal effect on Raffaelea quercivora at low concentrations” value (shortened to “antifungal effect”) in experiment [1] was “not exhibited any antifungal effect”.
In the case of `CC1(C)CCC(Cc2ccc(Cl)cc2)C1(O)Cn1cncn1` (stereo not shown) [metconazole], the inhibition at 0.01 ppm in experiment [1] (3 to 4 days at 25° C.) turned out to be 35%. Moreover, the inhibition at 0.1 ppm in experiment [1] (setting [6]) was 59%. The inhibition at 1 ppm in experiment [1] (setting [3]) was determined as 97%. For the same compound, the inhibition at 10 ppm in experiment [1] (setting [4]) is 98%. Also, in experiment [1] (setting [5]), the inhibition at 100 ppm came out at 100%.
For the compound `CCCCC(C#N)(Cn1cncn1)c1ccc(Cl)cc1` (stereo not shown) [myclobutanil], the inhibition at 1 ppm in experiment [1] (setting [3]) came out at 44%. Also, the inhibition at 10 ppm in experiment [1] (setting [4]) was determined as 96%. The inhibition at 100 ppm in experiment [1] (setting [5]) stood at 100%. The “antifungal effect” value in experiment [1] is given as “not exhibited any antifungal effect”.
For `CCCC1COC(Cn2cncn2)(c2ccc(Cl)cc2Cl)O1` (stereo not shown) [propiconazole], in experiment [2], the “effectiveness for fungi which cause Laurel wilt” value is “highly effective”.
Turning to `FC(F)C(F)(F)OCC(Cn1cncn1)c1ccc(Cl)cc1Cl` (stereo not shown) [tetraconazole], the inhibition at 1 ppm in experiment [1] (setting [3]) was found to be 60%. In addition, the inhibition at 10 ppm in experiment [1] (setting [4]) came to 100%. Also, the inhibition at 100 ppm in experiment [1] (setting [5]) stood at 100%. In addition, the “antifungal effect” value in experiment [1] is on record as “not exhibited any antifungal effect”.
With `CCCOC/C(=N\c1ccc(Cl)cc1C(F)(F)F)n1ccnc1` [triflumizole], the inhibition at 0.01 ppm in experiment [1] (3 to 4 days at 25° C.) turned out to be 25%. The inhibition at 0.1 ppm in experiment [1] (setting [6]) is 95%. Also, the inhibition at 1 ppm in experiment [1] (setting [3]) came out at 96%. Moreover, the inhibition at 10 ppm in experiment [1] (setting [4]) came to 100%. Further, in experiment [1] (setting [5]), the inhibition at 100 ppm amounted to 100%.
Regarding `O=CNC(N1CCN(C(NC=O)C(Cl)(Cl)Cl)CC1)C(Cl)(Cl)Cl` (stereo not shown) [triforine], in experiment [1], the inhibition at 0.1 ppm amounted to 0%, the inhibition at 1 ppm was found to be 0%, the inhibition at 10 ppm was determined as 26% and the inhibition at 100 ppm amounted to 100%. In experiment [1], the “antifungal effect” value is “not exhibited any antifungal effect”.

By inhibition is commonly meant the share of the control response that was lost under treatment.
